Data: patent US6756382B2, “Amide substituted imidazoquinolines” (3M Innovative Properties Company, priority 1999, dated 2004)
Counter-ions that a name gives are not always drawn.

Key:
[1] = test system: interferon (α); assay: Cytokine induction in human cells: interferon secreted by PBMCs, ELISA; format: cell-based; settings: PBMC, incubated 18 to 24 hours, interferon determined by ELISA, read-out: Lowest Effective Concentration (μM) Interferon
Description: (§1) An in vitro human blood cell system was used to assess cytokine induction by compounds of the invention. Activity is based on the measurement of interferon and tumor necrosis factor (α) (IFN and TNF, respectively) secreted into culture media as described by Testerman et. al. In “Cytokine Induction by the Immunomodulators Imiquimod and S-27609”, Journal of Leukocyte Biology, 58, 365-372 (September, 1995).
(§2) Whole blood is collected by venipuncture into EDTA vacutainer tubes from healthy human donors. Peripheral blood mononuclear cells (PBMCs) are separated from whole blood by density gradient centrifugation using Histopaque®-1077 (Sigma Chemicals, St. Louis, Mo.). The PBMCs are suspended at 3-4×10^6 cells/mL in RPMI 1640 medium containing 10% fetal bovine serum, 2 mM L-glutamine and 1% penicillin/streptomycin solution (RPMI complete). The PBMC suspension is added to 48 well flat bottom sterile tissue culture plates (Costar, Cambridge, Mass. or Becton Dickinson Labware, Lincoln Park, N.J.) containing an equal volume of RPMI complete media containing test compound.
(§3) The compounds are solubilized in dimethyl sulfoxide (DMSO). The DMSO concentration should not exceed a final concentration of 1% for addition to the culture wells.
(§4) The solution of test compound is added at 60 μM to the first well containing RPMI complete and serial (three fold or ten fold) dilutions are made. The PBMC suspension is then added to the wells in an equal volume, bringing the test compound concentrations to the desired range. The final concentration of PBMC suspension is 1.5-2×10^6 cells/mL. The plates are covered with sterile plastic lids, mixed gently and then incubated for 18 to 24 hours at 37° C. in a 5% carbon dioxide atmosphere.
(§5) Following incubation the plates are centrifuged for 5-10 minutes at 1000 rpm (˜200×g) at 4° C. The cell culture supernatant is removed with a sterile polypropylene pipet and transferred to sterile polypropylene tubes. Samples are maintained at −30 to −70° C. until analysis. The samples are analyzed for interferon (α) by either ELISA or bioassay and for tumor necrosis factor (α) by ELISA.
Interferon (α) concentration is determined by ELISA using a Human Multi-Species kit from PBL Biomedical Laboratories, New Brunswick, N.J.
(§6) The table below lists the lowest concentration found to induce interferon and the lowest concentration found to induce tumor necrosis factor for each compound. […] Unless otherwise indicated, the interferon biosynthesis was determined by ELISA.

[2] = test system: tumor necrosis factor (α); assay: Cytokine induction in human cells: tumor necrosis factor (α) secreted by PBMCs, ELISA; format: cell-based; settings: PBMC, incubated 18 to 24 hours, TNF determined by ELISA, read-out: Lowest Effective Concentration (μM) Tumor Necrosis Factor
Description: as §1, §2, §3, §4, §5
Tumor necrosis factor (α) (TNF)concentration is determined using ELISA kits available from Genzyme, Cambridge, Mass.; R&D Systems, Minneapolis, Minn.; or Pharmingen, San Diego, Calif.
as §6

`COCCc1nc2c(N)nc3ccccc3c2n1CCCCNC(=O)C1CCCN1S(=O)(=O)c1ccc(C(C)(C)C)cc1` (stereo in doubt) [Example 185, N-{4-[4-amino-2-(2-methoxyethyl)-1H-imidazo[4,5-c]quinolin-1-yl]butyl}-1-[(4-tert-butylphenyl)sulfonyl]-L-prolinamide] was tested, and the minimal effective concentration [1] was 1.11 µM and the minimal effective concentration [2] was 3.33 µM.
With `Cc1nc2c(N)nc3ccccc3c2n1CCCCNC(=O)c1ccccc1` [Example 4, N^1-[4-(4-Amino-2-methyl-1H-imidazo[4,5-c]quinolin-1-yl)butyl]benzamide] the minimal effective concentration [1] was 0.04 µM and the minimal effective concentration [2] was 0.37 µM.
`CCc1nc2c(N)nc3ccccc3c2n1CCCCNC(=O)c1ccccc1` [Example 5, N^1-[4-(4-Amino-2-ethyl-1H-imidazo[4,5-c]quinolin-1-yl)butyl]benzamide] gave a minimal effective concentration [1] of 0.04 µM and a minimal effective concentration [2] of 0.37 µM.
Work on `CCCCc1nc2c(N)nc3ccccc3c2n1CCCCNC(=O)c1ccccc1` [Example 6, N^1-[4-(4-Amino-2-butyl-1H-imidazo[4,5-c]quinolin-1-yl)butyl]benzamide] yielded a minimal effective concentration [1] of 0.12 µM and a minimal effective concentration [2] of 1.11 µM.
`Nc1nc2ccccc2c2c1ncn2CCCCCNC(=O)c1ccccc1` [Example 10, N^1-[5-(4-Amino-1H-imidazo[4,5-c]quinolin-1-yl)pentyl]benzamide Hydrochloride] was tested, and the minimal effective concentration [1] was 3.33 µM and the minimal effective concentration [2] was over 30 µM.
Compound `Nc1nc2ccccc2c2c1ncn2CCCNC(=O)c1ccccc1` [Example 11, N^1-[3-(4-Amino-1H-imidazo[4,5-c]quinolin-1-yl)propyl]benzamide Hydrochloride] has a minimal effective concentration [1] of 1.11 µM and a minimal effective concentration [2] of over 30 µM.
For `CCOCc1nc2c(N)nc3ccccc3c2n1CCNC(=O)CCCCC1SCC2NC(=O)NC21` (centres unmarked) [Example 29, N^1-[2-(4-Amino-2-(ethoxymethyl)-1H-imidazo[4,5-c]quinolin-1-yl)ethyl]-5-(2-oxoperhydrothieno[3,4-d]imidazol-4-yl)pentanamide Ditrifluoroacetate], the minimal effective concentration [1] was 0.12 µM and the minimal effective concentration [2] was over 30 µM.
Work on `Nc1nc2ccccc2c2c1ncn2CCCCNC(=O)c1cccc2ccccc12` [Example 38, N^1-[4-(4-Amino-1H-imidazo[4,5-c]quinolin-1-yl)butyl]-1-naphthamide] yielded a minimal effective concentration [1] of 0.12 µM and a minimal effective concentration [2] of 3.33 µM.
In the case of `Nc1nc2ccccc2c2c1ncn2CCCCNC(=O)c1cnc2ccccc2c1` [Example 40, N^3-[4-(4-Amino-1H-imidazo[4,5-c]quinolin-1-yl)butyl]-3-quinolinecarboxamide], the minimal effective concentration [1] is reported as 0.37 µM and the minimal effective concentration [2] is reported as 30 µM.
`Nc1nc2ccccc2c2c1ncn2CCCCNC(=O)c1ccco1` [Example 85] was tested, and the minimal effective concentration [1] was 1.11 µM and the minimal effective concentration [2] was 10 µM.
For `Nc1nc2ccccc2c2c1ncn2CCCCNC(=O)c1cccs1` [Example 86], the minimal effective concentration [1] was 1.11 µM and the minimal effective concentration [2] was 10 µM.
`Nc1nc2ccccc2c2c1ncn2CCCCNC(=O)c1ccc([N+](=O)[O-])cc1` [Example 87] showed a minimal effective concentration [1] of 3.33 µM and a minimal effective concentration [2] of 30 µM.
For `CC(=O)NCCCCn1cnc2c(N)nc3ccccc3c21` [Example 88], the minimal effective concentration [1] was 10 µM and the minimal effective concentration [2] was over 30 µM.
`Nc1nc2ccccc2c2c1ncn2CCCCNC(=O)c1cccc(Br)c1` [Example 89] gave a minimal effective concentration [1] of 1.11 µM and a minimal effective concentration [2] of 10 µM.
In the case of `Nc1nc2ccccc2c2c1ncn2CCCCNC(=O)C12CC3CC(CC(C3)C1)C2` [Example 90], the minimal effective concentration [1] is reported as 3.33 µM and the minimal effective concentration [2] is reported as 10 µM.
Work on `Nc1nc2ccccc2c2c1ncn2CCCCNC(=O)C1(c2ccc(Cl)cc2)CCCC1` [Example 91] yielded a minimal effective concentration [1] of 3.33 µM and a minimal effective concentration [2] of over 30 µM.
For `C=CCCCCCCCCC(=O)NCCCCn1cnc2c(N)nc3ccccc3c21` [Example 92], the minimal effective concentration [1] was 3.33 µM and the minimal effective concentration [2] was over 30 µM.
Work on `COc1cc(C(=O)NCCCCn2cnc3c(N)nc4ccccc4c32)cc(OC)c1OC` [Example 93] yielded a minimal effective concentration [1] of 1.11 µM and a minimal effective concentration [2] of 30 µM.
In the case of `COC(=O)CCCCC(=O)NCCCCn1cnc2c(N)nc3ccccc3c21` [Example 95], the minimal effective concentration [1] is reported as 3.33 µM and the minimal effective concentration [2] is reported as 30 µM.
`Nc1nc2ccccc2c2c1ncn2CCCCNC(=O)c1ccc([N+](=O)[O-])o1` [Example 96] was tested, and the minimal effective concentration [1] was 0.37 µM and the minimal effective concentration [2] was 10 µM.
Work on `Nc1nc2ccccc2c2c1ncn2CCCCNC(=O)c1cccnc1Cl` [Example 97] yielded a minimal effective concentration [1] of 0.12 µM and a minimal effective concentration [2] of 3.33 µM.
Compound `COc1ccc(CC(=O)NCCCCn2cnc3c(N)nc4ccccc4c32)cc1` [Example 98] has a minimal effective concentration [1] of 1.11 µM and a minimal effective concentration [2] of 10 µM.
`Nc1nc2ccccc2c2c1ncn2CCCCNC(=O)CC1CCCC1` [Example 99] gave a minimal effective concentration [1] of 0.37 µM and a minimal effective concentration [2] of 3.33 µM.
With `COC(=O)c1ccc(C(=O)NCCCCn2cnc3c(N)nc4ccccc4c32)cc1` [Example 100] the minimal effective concentration [1] was 10 µM and the minimal effective concentration [2] was 3.33 µM.
In the case of `COC(=O)CCCCCCCCC(=O)NCCCCn1cnc2c(N)nc3ccccc3c21` [Example 101], the minimal effective concentration [1] is reported as 3.33 µM and the minimal effective concentration [2] is reported as over 30 µM.
With `Nc1nc2ccccc2c2c1ncn2CCCCNC(=O)c1ccc(OC(F)(F)F)cc1` [Example 102] the minimal effective concentration [1] was 3.33 µM and the minimal effective concentration [2] was over 30 µM.
With `Nc1nc2ccccc2c2c1ncn2CCCCNC(=O)c1ccc(CN2CCOCC2)cc1` [Example 103] the minimal effective concentration [1] was 0.37 µM and the minimal effective concentration [2] was 10 µM.
`Nc1nc2ccccc2c2c1ncn2CCCCNC(=O)c1ccc(CN2CCN(C(c3ccccc3)c3ccccc3)CC2)cc1` [Example 104] showed a minimal effective concentration [1] of over 30 µM and a minimal effective concentration [2] of over 30 µM.
In the case of `Nc1nc2ccccc2c2c1ncn2CCCCNC(=O)c1ccc(CNCc2ccncc2)cc1` [Example 105], the minimal effective concentration [1] is reported as 0.12 µM and the minimal effective concentration [2] is reported as 10 µM.
In the case of `COc1ccccc1CCNCc1ccc(C(=O)NCCCCn2cnc3c(N)nc4ccccc4c32)cc1` [Example 106], the minimal effective concentration [1] is reported as 3.33 µM and the minimal effective concentration [2] is reported as over 30 µM.
Compound `CN(CCc1ccccn1)Cc1ccc(C(=O)NCCCCn2cnc3c(N)nc4ccccc4c32)cc1` [Example 107] has a minimal effective concentration [1] of 0.12 µM and a minimal effective concentration [2] of 10 µM.
In the case of `Nc1nc2ccccc2c2c1ncn2CCCCNC(=O)Cc1cccs1` [Example 108, N^1-(4-(4-Amino-1H-imidazo[4,5-c]quinolin-1-yl)butyl)-2-(2-thienyl)acetamide], the minimal effective concentration [1] is reported as 0.12 µM and the minimal effective concentration [2] is reported as 10 µM.
In the case of `Nc1nc2ccccc2c2c1ncn2CCCCNC(=O)CC(c1ccccc1)c1ccccc1` [Example 109], the minimal effective concentration [1] is reported as over 30 µM and the minimal effective concentration [2] is reported as over 30 µM.
For `Nc1nc2ccccc2c2c1ncn2CCCCNC(=O)CC1C=CCC1` (centres unmarked) [Example 110], the minimal effective concentration [1] was 1.11 µM and the minimal effective concentration [2] was 3.33 µM.
`Nc1nc2ccccc2c2c1ncn2CCCCNC(=O)c1cc(Cl)cc(Cl)c1` [Example 111] showed a minimal effective concentration [1] of 1.11 µM and a minimal effective concentration [2] of over 30 µM.
With `N#CCC(=O)NCCCCn1cnc2c(N)nc3ccccc3c21` [Example 112] the minimal effective concentration [1] was 10 µM and the minimal effective concentration [2] was over 30 µM.
Work on `COC(=O)CCC(=O)NCCCCn1cnc2c(N)nc3ccccc3c21` [Example 113] yielded a minimal effective concentration [1] of 3.33 µM and a minimal effective concentration [2] of over 30 µM.
`C#CCCC(=O)NCCCCn1cnc2c(N)nc3ccccc3c21` [Example 115] was tested, and the minimal effective concentration [1] was 1.11 µM and the minimal effective concentration [2] was 30 µM.
Compound `C=CCCC(=O)NCCCCn1cnc2c(N)nc3ccccc3c21` [Example 116] has a minimal effective concentration [1] of 0.37 µM and a minimal effective concentration [2] of 10 µM.
With `COC(=O)CCCC(=O)NCCCCn1cnc2c(N)nc3ccccc3c21` [Example 117] the minimal effective concentration [1] was 3.33 µM and the minimal effective concentration [2] was over 30 µM.
With `CC(=O)CCCC(=O)NCCCCn1cnc2c(N)nc3ccccc3c21` [Example 118] the minimal effective concentration [1] was 1.11 µM and the minimal effective concentration [2] was over 30 µM.
In the case of `C#CCCCCCCCCC(=O)NCCCCn1cnc2c(N)nc3ccccc3c21` [Example 119], the minimal effective concentration [1] is reported as over 30 µM and the minimal effective concentration [2] is reported as over 30 µM.
`COc1ccc(CN(CCCCn2cnc3c(N)nc4ccccc4c32)C(C)=O)cc1` [Example 120] was tested, and the minimal effective concentration [1] was 0.37 µM and the minimal effective concentration [2] was over 30 µM.
